Reference: publication PMC7024208, “In Silico and In Vitro Experimental Studies of New Dibenz[b,e]oxepin-11(6H)one O-(arylcarbamoyl)-oximes Designed as Potential Antimicrobial Agents” (Molecules, 2020)
In brackets after ≈: the same amount, converted by molar mass. Read-outs that look alike come from different tables or passages of the source. One block for each compound: values may come before it.

Experiments:
B. subtilis ATCC 6633 [1] = assay: Qualitative antimicrobial screening, adapted disk diffusion; type: cell-based, Bacillus subtilis; set-up: zone of inhibition: dose or concentration left out as unconfirmed
Experimental: (§1) The antimicrobial activities of the synthesized compounds were determined against ATCC reference and clinical microbial strains, i.e., Bacillus subtilis ATCC 6633, Staphylococcus aureus ATCC 25923, Escherichia coli ATCC 25922, Klebsiella pneumoniae 350, Pseudomonas aeruginosa 1671 and Candida albicans ATCC 10231, using as positive controls the antibiotic ticarcillin and the antifungal agent fluconazole. Microbial suspensions of 1.5 × 10^8 CFU/mL corresponding to 0.5 McFarland density obtained from 15–18 h bacterial cultures developed on solid media were used in our experiments. The antimicrobial activity was tested on Mueller-Hinton Agar (MHA) medium, while a Yeast Peptone Glucose (YPG) medium was used in case of C. albicans. The obtained compounds were solubilized in DMSO and the starting stock solution was of 5000 μg/mL concentration. The qualitative screening was performed by an adapted disk diffusion method as previously reported.

S. aureus ATCC 25923 [2] = assay: as above; type: cell-based, Staphylococcus aureus; set-up: zone of inhibition: dose or concentration left out as unconfirmed; details: Staphylococcus aureus
Experimental: as §1

P. aeruginosa ATCC 27853 = assay: as above; type: cell-based; set-up: zone of inhibition: dose or concentration left out as unconfirmed; details: Pseudomonas aeruginosa
E. coli ATCC 25922 [3] = assay: as above; type: cell-based, Escherichia coli; set-up: zone of inhibition: dose or concentration left out as unconfirmed; details: Escherichia coli
Experimental: as §1

K. pneumoniae 1771 = assay: as above; type: cell-based, Klebsiella pneumoniae; set-up: zone of inhibition: dose or concentration left out as unconfirmed
C. albicans ATCC 10231 [4] = assay: as above; type: cell-based, Candida albicans; set-up: zone of inhibition: dose or concentration left out as unconfirmed
Experimental: as §1

B. subtilis ATCC 6633 [5] = assay: MIC by liquid medium microdilution; type: cell-based, Bacillus subtilis; details: B. subtilis ATCC 6633, 24 h at 37 °C
Experimental: as §1
(§2) The quantitative assay of the antimicrobial activity was performed by the liquid medium microdilution method, in 96 multi-well plates, in order to establish the minimal inhibitory concentration (MIC). In this purpose, serial two-fold dilutions of the compounds ranging between 5000 and 4.8 µg/mL were performed in a 200 µL volume of broth and each well was seeded with 50 µL of microbial inoculum. Sterility control (wells containing only culture medium) and culture controls (wells containing culture medium seeded with the microbial inoculum) were used. The influence of the DMSO solvent was also quantified in a series of wells containing DMSO [36], diluted accordingly with the dilution scheme used for the compounds and for the positive controls.

C. albicans ATCC 10231 [6] = assay: MIC by liquid medium microdilution; type: cell-based; details: Candida albicans, ATCC10231, 24 h
Experimental: as §1, §2

E. coli ATCC 25922 [7] = assay: MIC by liquid medium microdilution; type: cell-based; details: Escherichia coli
Experimental: as §1, §2

S. aureus ATCC 25923 [8] = assay: MIC by liquid medium microdilution; type: cell-based; details: Staphylococcus aureus
Experimental: as §1, §2

B. subtilis ATCC 6633 [9] = assay: Antibiofilm activity (MBEC), micro-titer method on plastic inert substratum; type: cell-based, Bacillus subtilis; details: B. subtilis ATCC 6633 biofilm on plastic substratum
Experimental: (§3) The assessment of the new compounds influence on the microbial ability to colonize the plastic inert substratum was performed by the micro-titer method, following previously described protocols. The absorbance at 490 nm was measured with an LB 911 ELISA reader (Apollo, Berthold Technologies GmbH & Co. KG, Bad Wildbad, Germany). All biological experiments were performed in triplicates.

S. aureus ATCC 25923 [10] = assay: as above; type: cell-based, Staphylococcus aureus; details: S. aureus ATCC 25923 biofilm on plastic substratum
Experimental: as §3

E. coli ATCC 25922 [11] = assay: as above; type: cell-based, Escherichia coli; details: E. coli ATCC 25922 biofilm on plastic substratum
Experimental: as §3

C. albicans ATCC 10231 [12] = assay: as above; type: cell-based, Candida albicans; details: C. albicans ATCC 10231 biofilm on plastic substratum
Experimental: as §3

[13] = Cytotoxicity, CellTiter Assay; type: cell-based; details: human, HCT8 cells, 400–10 µg/mL tested
Experimental: (§4) For the in vitro assessment of the cytotoxic effect, the HCT8 cells and the CellTiter Assay kit (Promega, Madison, WI, USA) and Annexin V-FITC Apoptosis Detection Kit I (BD Bioscience Pharmingen, Franklin Lakes, NJ, USA) were used. Briefly, for CellTiter Assay, 1 × 10^4 cells/well were plated in 96 well plate and 24 h after, were treated with the new compound at final concentration between 400 µg/mL–10 µg/mL. The viability was evaluated after 24 h by adding CellTiter aqueous solution and reading to spectrophotometer according to the manufacturer indications. The IC50 were calculated from the percent of viability reported to untreated cells using on line tools https://www.aatbio.com/tools/ic50-calculator. For Annexin V-FITC Apoptosis Detection Kit I, 5 × 10^5 cells were seeded in 3.5 cm diameter Petri dish and treated with 100 µg/mL compounds solution for 24 h. The total cells were resuspended in 100 µL of binding buffer, and stained with 5 µL Annexin V-FITC and 5 µL propidium iodide for 10 min in dark. At least 10,000 events from each sample were acquired using a flow cytometer (Beckman Coulter, Indianapolis, IN, USA). The percentage of cells affected by the treatment was determined by subtracting the percentage of apoptotic/necrotic cells in the untreated population from percentage of apoptotic cells in the treated population.

[14] = Annexin V-FITC/propidium iodide apoptosis analysis by flow cytometry; type: cell-based; details: human, HCT8 cells, Annexin V-FITC/PI, read-out: viable cells (Q4)
Experimental: as §4

Structure (SMILES): Cc1cccc(NC(=O)ON=C2c3ccccc3COc3ccccc32)c1 [Compound 7a, 6,11-Dihydrodibenz[b,e]oxepin-11(6H)one O-(3-tolyl-carbamoyl)oxime]
growth inhibition diameter (B. subtilis ATCC 6633 [1]; B. subtilis ATCC 6633, adapted diffusion assay): anti-B. subtilis | zone of inhibition (B. subtilis ATCC 6633 [1]; Bacillus subtilis, ATCC6633, read-out: growth inhibition diameter): 8 mm | zone of inhibition (S. aureus ATCC 25923 [2]; ATCC25923, read-out: growth inhibition diameter): 0 mm | zone of inhibition (P. aeruginosa ATCC 27853; ATCC27853, read-out: growth inhibition diameter): 0 mm | zone of inhibition (E. coli ATCC 25922 [3]; ATCC25922, read-out: growth inhibition diameter): 0 mm | zone of inhibition (K. pneumoniae 1771; Klebsiella pneumoniae, 1771, read-out: growth inhibition diameter): 0 mm | growth inhibition diameter (C. albicans ATCC 10231 [4]; C. albicans ATCC 10231, adapted diffusion assay): anti-C. albicans activity | zone of inhibition (C. albicans ATCC 10231 [4]; Candida albicans, ATCC10231, read-out: growth inhibition diameter): 8 mm | MIC (B. subtilis ATCC 6633 [5]): 4.8 µg/mL (≈ 13.4 µM) | MIC (B. subtilis ATCC 6633 [5]; Bacillus subtilis, ATCC6633, 24 h): 4.8 to 39 µg/mL (≈ 13.4 to 109 µM) | MIC (C. albicans ATCC 10231 [6]): 4.8 µg/mL (≈ 13.4 µM) | MIC (E. coli ATCC 25922 [7]; ATCC25922, 24 h): > 5000 µg/mL | MIC (S. aureus ATCC 25923 [8]; ATCC25923, 24 h): > 5000 µg/mL | MBEC (B. subtilis ATCC 6633 [9]): 156 µg/mL | MBEC (S. aureus ATCC 25923 [10]): 39 µg/mL | MBEC (E. coli ATCC 25922 [11]): 625 µg/mL | MBEC (C. albicans ATCC 10231 [12]): 39 µg/mL | IC50 at 24 h [13]: 264 µg/mL (≈ 737 µM) | viability at 24 h, 100 µg/mL [14]: 84.2%

MIC (B. subtilis ATCC 6633 [5]; Bacillus subtilis, ATCC6633, 24 h, read-out: MIC): 78 µg/mL (≈ 203 µM) | MIC (E. coli ATCC 25922 [7]; ATCC25922, E. coli ATCC 25922, 24 h at 37 °C, read-out: MIC): 19.5 µg/mL (≈ 50.7 µM) | MIC (S. aureus ATCC 25923 [8]; ATCC25923, S. aureus ATCC 25923, 24 h at 37 °C, read-out: MIC): 9.76 µg/mL (≈ 25.4 µM)
Structure (SMILES): CC1(C)S[C@@H]2[C@H](NC(=O)[C@H](C(=O)O)c3ccsc3)C(=O)N2[C@H]1C(=O)O [Ticarcillin, ticarcillin, reference compound]
zone of inhibition at 5000 µg/mL (stock) (B. subtilis ATCC 6633 [1]; Bacillus subtilis, ATCC6633, B. subtilis ATCC 6633, adapted diffusion assay, read-out: growth inhibition diameter): 15 mm | zone of inhibition at 5000 µg/mL (stock) (S. aureus ATCC 25923 [2]; ATCC25923, S. aureus ATCC 25923, adapted diffusion assay, read-out: growth inhibition diameter): 21 mm | zone of inhibition at 5000 µg/mL (stock) (P. aeruginosa ATCC 27853; ATCC27853, P. aeruginosa ATCC 27853, adapted diffusion assay, read-out: growth inhibition diameter): 17 mm | zone of inhibition at 5000 µg/mL (stock) (E. coli ATCC 25922 [3]; ATCC25922, E. coli ATCC 25922, adapted diffusion assay, read-out: growth inhibition diameter): 24 mm | zone of inhibition at 5000 µg/mL (stock) (K. pneumoniae 1771; Klebsiella pneumoniae, K. pneumoniae 1771, adapted diffusion assay, read-out: growth inhibition diameter): 0 mm | MBEC (B. subtilis ATCC 6633 [9]): 156 µg/mL | MBEC (S. aureus ATCC 25923 [10]): 156 µg/mL | MBEC (E. coli ATCC 25922 [11]): 625 µg/mL
